Test results taken from patent publication US8436015B2, “Glucagon receptor antagonist compounds, compositions containing such compounds and methods of use” (Merck Sharp & Dohme Corp., priority 2008, dated 2013).

Target: T1, human glucagon receptor (Homo sapiens, UniProt P47871)
T1 construct: expressed in transfected cells; cell membranes used
Test: Glucagon Receptor Binding Assay
Settings: more active isomer of indicated compounds; 125I-glucagon displacement, membranes of CHO cells expressing cloned human glucagon receptor
Method: A stable CHO (Chinese hamster ovary) cell line expressing cloned human glucagon receptor was maintained as described (Chicchi et al. J Biol Chem 272, 7765-9 (1997); Cascieri et al. J Biol Chem 274, 8694-7 (1999)). […] After 4-12 hours incubation at room temperature, the radioactivity bound to the cell membranes was determined in a radioactive emission detection counter (Wallac-Microbeta). Data was analyzed using the software program Prism from GraphPad. The IC50 values were calculated using non-linear regression analysis assuming single site competition.

T1 sequence (P47871 26-477): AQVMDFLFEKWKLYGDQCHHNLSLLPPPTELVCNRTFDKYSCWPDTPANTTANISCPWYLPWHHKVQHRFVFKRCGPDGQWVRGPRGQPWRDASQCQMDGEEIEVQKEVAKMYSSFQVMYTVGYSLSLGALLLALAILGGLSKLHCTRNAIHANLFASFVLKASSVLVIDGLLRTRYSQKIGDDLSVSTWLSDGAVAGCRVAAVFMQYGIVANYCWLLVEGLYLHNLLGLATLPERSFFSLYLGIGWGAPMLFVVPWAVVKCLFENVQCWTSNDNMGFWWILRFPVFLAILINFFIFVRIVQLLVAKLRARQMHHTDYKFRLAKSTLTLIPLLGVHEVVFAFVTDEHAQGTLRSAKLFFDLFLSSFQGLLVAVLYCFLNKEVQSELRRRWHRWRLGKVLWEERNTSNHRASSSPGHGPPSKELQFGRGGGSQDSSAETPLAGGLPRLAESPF

SMILES | IC50 [nM]
Cc1cc2nccc(C(c3ccc(Cl)cc3)C(CCC(F)(F)F)c3ccc(C(=O)NCCC(=O)O)cc3)c2cc1F (stereo not drawn) [Example 77] | 0.2
CCC[C@H](c1ccc(C(=O)NCCC(=O)O)cc1)C(c1ccc(Cl)cc1)c1ncnc2c(F)cc(C)cc12 (single isomer, unassigned) [Example 173] | 1.4
CCCC(c1ccc(C(=O)NCCC(=O)O)cc1)C(c1ccc(Cl)cc1)c1nc(CC)c2cc(OC)ccc2n1 (single isomer, unassigned) [Example 174, N-(4-{1-[(4-Chlorophenyl)(4-Ethyl-6-Methoxyquinazolin-2-Yl)Methyl]Butyl}Benzoyl)-β-Alanine] | 1.7
CCC[C@H](c1ccc(C(=O)NCCC(=O)O)cc1)C(c1ccc(Cl)cc1)c1ccnc2c(C)cc(Cl)cc12 (single isomer, unassigned) [Example 1] | 1
CCCC(c1ccc(C(=O)NCCC(=O)O)cc1)C(c1ccc(Cl)cc1)c1ccnc2c(C)cc(F)cc12 (stereo not drawn) [Example 35] | 0.8
CCCC(c1ccc(C(=O)NCCC(=O)O)cc1)C(c1ccc(Cl)cc1)c1cccc2nc(OC3CCC3)ccc12 (stereo not drawn) [Example 108] | 0.4
CCCC(c1ccc(C(=O)NCCC(=O)O)cc1)C(c1ccc(Cl)cc1)c1ccnc2c(Cl)cc(OC)cc12 (stereo not drawn) [Example 10] | 0.6
CCCC(c1ccc(C(=O)NCCC(=O)O)cc1)C(c1cccc(Cl)c1)c1ccnc2cc(F)c(F)cc12 (stereo not drawn) [Example 159] | 0.6
CCCC(c1ccc(C(=O)NCCC(=O)O)cc1)C(c1ccc(Cl)cc1)c1cc(C)nc2cc(Cl)ccc12 (stereo not drawn) [Example 37] | 0.4
CCCC(c1ccc(C(=O)NCCC(=O)O)cc1)C(c1ccc(Cl)c(Cl)c1)c1ccnc2c(C)cc(Cl)cc12 (stereo not drawn) [Example 84] | 0.3
CCCC(c1ccc(C(=O)NCCC(=O)O)cc1)C(c1ccc(OC(F)(F)F)cc1)c1ccnc2cc(F)ccc12 (stereo not drawn) [Example 62] | 0.2
CCC[C@H](c1ccc(C(=O)NCCC(=O)O)cc1)C(c1ccc(Cl)cc1)c1cccc2nc(OC)ccc12 (single isomer, unassigned) [Example 2] | 0.5
CCCC(c1ccc(C(=O)NCCC(=O)O)cc1)C(c1ccc(Cl)cc1)c1cccc2nc(OCCOC)ccc12 (stereo not drawn) [Example 112] | 0.9

Continued by falling IC50, values first:

IC50 [nM] | SMILES
18 | CCC[C@H](c1ccc(C(=O)NCCC(=O)O)cc1)C(c1ccc(Cl)cc1)c1cccc2nc(-c3ccn[nH]3)ccc12 (stereo partly drawn) [Example 171, N-(4-{(1S)-1-[(4-Chlorophenyl)(2-(1H-Pyrazol-5-Yl)Quinolin-5-Yl)Methyl]Butyl}Benzoyl)-β-Alanine]
12 | CCCC(c1ccc(C(=O)NCCC(=O)O)cc1)C(c1ccc(Cl)cc1)c1cccc2ccc(OC)nc12 (stereo not drawn) [Example 146]
5 | CCC[C@H](c1ccc(C(=O)NCCC(=O)O)cc1)C(c1ccc(Cl)cc1)c1cnc2cc(C(F)(F)F)ccc2c1 (single isomer, unassigned) [Example 3]
4.5 | CCCC(c1ccc(C(=O)NCCC(=O)O)cc1)C(c1ccc(Cl)cc1)c1nc(C2CCCCC2)c2ccc(C(F)(F)F)cc2n1 (stereo not drawn) [Example 179]
1.8 | CCCC(c1ccc(C(=O)NCCC(=O)O)cc1)C(c1ccc(Cl)cc1)c1ccc2nc(OC)ccc2c1 (stereo not drawn) [Example 120]
1.4 | CCCC(c1ccc(C(=O)NCCC(=O)O)cc1)C(c1ccc(Cl)cc1)c1cc(C)nc2ccc(Cl)cc12 (stereo not drawn) [Example 23]
1.1 | CCCC(c1ccc(C(=O)NCCC(=O)O)cc1)C(c1ccc(Cl)cc1)c1ccnc2c(C)cc(OC(F)(F)F)cc12 (stereo not drawn) [Example 52]
0.5 | CCCC(c1ccc(C(=O)NCCC(=O)O)cc1)C(c1ccc(Cl)cc1)c1cncc2c(Cl)cccc12 (stereo not drawn) [Example 131]
0.5 | CCCC(c1ccc(C(=O)NCCC(=O)O)cc1)C(c1ccc(Cl)cc1)c1ccnc2cc(C)c(Cl)cc12 (stereo not drawn) [Example 50]
0.5 | CCCC(c1ccc(C(=O)NCCC(=O)O)cc1)C(c1ccc(Cl)cc1)c1ccnc2cc(Cl)ccc12 (stereo not drawn) [Example 7]
0.4 | O=C(O)CCNC(=O)c1ccc(C(CCC(F)(F)F)C(c2ccc(Cl)cc2)c2cncc3cc(Cl)ccc23)cc1 (stereo not drawn) [Example 138]
0.3 | CCCC(c1ccc(C(=O)NCCC(=O)O)cc1)C(c1ccc(OC(F)(F)F)cc1)c1cncc2cc(Cl)ccc12 (stereo not drawn) [Example 139]
0.3 | CCC[C@H](c1ccc(C(=O)NCCC(=O)O)cc1)C(c1ccc(Cl)cc1)c1ccnc2cc(F)c(F)cc12 (single isomer, unassigned) [Example 157]
0.3 | CCC(c1ccc(C(=O)NCCC(=O)O)cc1)C(c1ccc(OC(F)(F)F)cc1)c1cccc2nc(OC)ccc12 (stereo not drawn) [Example 115]
0.2 | O=C(O)CCNC(=O)c1ccc(C(CCC(F)(F)F)C(c2ccc(Cl)cc2)c2ccnc3cc(Cl)ccc23)cc1 (stereo not drawn) [Example 55]
0.2 | CCCC(c1ccc(C(=O)NCCC(=O)O)cc1)C(c1ccc(Cl)cc1)c1ccnc2c(F)c(C)c(F)cc12 (stereo not drawn) [Example 72]
0.1 | CCCC(c1ccc(C(=O)NCCC(=O)O)cc1)C(c1ccc(Cl)cc1)c1ccnc2cc(OC(F)(F)F)ccc12 (stereo not drawn) [Example 24]
